Tested on: BRD pathogens, M. haemolytica and P. multocida
Assay: MIC screening panel of BRD pathogens (antibacterial / non-antibacterial)
Conditions: for MIC: read-out: antibacterial / non-antibacterial (MIC for the BRD pathogens)

1-((2S,3R,4S,6R)-2-(((2R,3S,4R,5R,8R,10R,11R,12S,13S,14R)-2-ethyl-3,4,10-trihydroxy-13-(((2R,4R,5S,6S)-5-hydroxy-4-methoxy-4,6-dimethyl-5-((4-(trifluoromethyl)piperazin-1-yl)methyl)tetrahydro-2H-pyran-2-yl)oxy)-3,5,8,10,12,14-hexamethyl-15-oxo-1-oxa-6-azacyclopentadecan-11-yl)oxy)-3-hydroxy-6-methyltetrahydro-2H-pyran-4-yl)-1,3-dimethyl-3-phenylurea [Example J-14]
MIC ≤64 μg/mL for at least one of the bacterial strains (flag * at Ex #) (Table J, Formula (1-A1b) compounds): J-14* (*MIC ≤64 μg/mL for at least one of the bacterial strains)

CC[C@H]1OC(=O)[C@H](C)[C@@H](O)[C@H](C)[C@@H](O[C@@H]2O[C@H](C)C[C@H](N(C)C(=O)Nc3ncccn3)[C@H]2O)[C@](C)(O)C[C@@H](C)CN[C@H](C)[C@@H](O)[C@]1(C)O [Example A-1, 1-((2S,3R,4S,6R)-2-(((2R,3S,4R,5R,8R,10R,11R,12S,13S,14R)-2-ethyl-3,4,10,13-tetrahydroxy-3,5,8,10,12,14-hexamethyl-15-oxo-1-oxa-6-azacyclopentadecan-11-yl)oxy)-3-hydroxy-6-methyltetrahydro-2H-pyran-4-yl)-1-methyl-3-(pyrimidin-2-yl)urea]
MIC: > 64 µg/mL

CC[C@H]1OC(=O)[C@H](C)[C@@H](O)[C@H](C)[C@@H](O[C@@H]2O[C@H](C)C[C@H](N(C)C(=O)Nc3cnccn3)[C@H]2O)[C@](C)(O)C[C@@H](C)CN[C@H](C)[C@@H](O)[C@]1(C)O [Example A-2, 1-((2S,3R,4S,6R)-2-(((2R,3S,4R,5R,8R,10R,11R,12S,13S,14R)-2-ethyl-3,4,10,13-tetrahydroxy-3,5,8,10,12,14-hexamethyl-15-oxo-1-oxa-6-azacyclopentadecan-11-yl)oxy)-3-hydroxy-6-methyltetrahydro-2H-pyran-4-yl)-1-methyl-3-(pyrazin-2-yl)urea]
MIC: > 64 µg/mL

CC[C@H]1OC(=O)[C@H](C)[C@@H](O)[C@H](C)[C@@H](O[C@@H]2O[C@H](C)C[C@H](N(C)C(=O)Nc3ccccn3)[C@H]2O)[C@](C)(O)C[C@@H](C)CN[C@H](C)[C@@H](O)[C@]1(C)O [Example A-3, 1-((2S,3R,4S,6R)-2-(((2R,3S,4R,5R,8R,10R,11R,12S,13S,14R)-2-ethyl-3,4,10,13-tetrahydroxy-3,5,8,10,12,14-hexamethyl-15-oxo-1-oxa-6-azacyclopentadecan-11-yl)oxy)-3-hydroxy-6-methyltetrahydro-2H-pyran-4-yl)-1-methyl-3-(pyridin-2-yl)urea]
MIC: > 64 µg/mL

CC[C@H]1OC(=O)[C@H](C)[C@@H](O)[C@H](C)[C@@H](O[C@@H]2O[C@H](C)C[C@H](N(C)C(=O)Nc3cccnc3)[C@H]2O)[C@](C)(O)C[C@@H](C)CN[C@H](C)[C@@H](O)[C@]1(C)O [Example A-4, 1-((2S,3R,4S,6R)-2-(((2R,3S,4R,5R,8R,10R,11R,12S,13S,14R)-2-ethyl-3,4,10,13-tetrahydroxy-3,5,8,10,12,14-hexamethyl-15-oxo-1-oxa-6-azacyclopentadecan-11-yl)oxy)-3-hydroxy-6-methyltetrahydro-2H-pyran-4-yl)-1-methyl-3-(pyridin-3-yl)urea]
MIC: > 64 µg/mL

CC[C@H]1OC(=O)[C@H](C)[C@@H](O)[C@H](C)[C@@H](O[C@@H]2O[C@H](C)C[C@H](N(C)C(=O)Nc3cnn(C)c3)[C@H]2O)[C@](C)(O)C[C@@H](C)CN[C@H](C)[C@@H](O)[C@]1(C)O [Example A-6, 1-((2S,3R,4S,6R)-2-(((2R,3S,4R,5R,8R,10R,11R,12S,13S,14R)-2-ethyl-3,4,10,13-tetrahydroxy-3,5,8,10,12,14-hexamethyl-15-oxo-1-oxa-6-azacyclopentadecan-11-yl)oxy)-3-hydroxy-6-methyltetrahydro-2H-pyran-4-yl)-1-methyl-3-(1-methyl-1H-pyrazol-4-yl)urea]
MIC: > 64 µg/mL

CC[C@H]1OC(=O)[C@H](C)[C@@H](O)[C@H](C)[C@@H](O[C@@H]2O[C@H](C)C[C@H](N(C)C(=O)Nc3cc(C)n(C)n3)[C@H]2O)[C@](C)(O)C[C@@H](C)CN[C@H](C)[C@@H](O)[C@]1(C)O [Example A-7, 3-(1,5-dimethyl-1H-pyrazol-3-yl)-1-((2S,3R,4S,6R)-2-(((2R,3S,4R,5R,8R,10R,11R,12S,13S,14R)-2-ethyl-3,4,10,13-tetrahydroxy-3,5,8,10,12,14-hexamethyl-15-oxo-1-oxa-6-azacyclopentadecan-11-yl)oxy)-3-hydroxy-6-methyltetrahydro-2H-pyran-4-yl)-1-methylurea]
MIC: > 64 µg/mL

CC[C@H]1OC(=O)[C@H](C)[C@@H](O)[C@H](C)[C@@H](O[C@@H]2O[C@H](C)C[C@H](N(C)C(=O)Nc3ccc(C#N)cc3)[C@H]2O)[C@](C)(O)C[C@@H](C)CN[C@H](C)[C@@H](O)[C@]1(C)O [Example A-9, 3-(4-cyanophenyl)-1-((2S,3R,4S,6R)-2-(((2R,3S,4R,5R,8R,10R,11R,12S,13S,14R)-2-ethyl-3,4,10,13-tetrahydroxy-3,5,8,10,12,14-hexamethyl-15-oxo-1-oxa-6-azacyclopentadecan-11-yl)oxy)-3-hydroxy-6-methyltetrahydro-2H-pyran-4-yl)-1-methylurea]
MIC: > 64 µg/mL

CC[C@H]1OC(=O)[C@H](C)[C@@H](O)[C@H](C)[C@@H](O[C@@H]2O[C@H](C)C[C@H](N(C)C(=O)Nc3cccc(C(F)(F)F)c3)[C@H]2O)[C@](C)(O)C[C@@H](C)CN[C@H](C)[C@@H](O)[C@]1(C)O [Example A-10, 1-((2S,3R,4S,6R)-2-(((2R,3S,4R,5R,8R,10R,11R,12S,13S,14R)-2-ethyl-3,4,10,13-tetrahydroxy-3,5,8,10,12,14-hexamethyl-15-oxo-1-oxa-6-azacyclopentadecan-11-yl)oxy)-3-hydroxy-6-methyltetrahydro-2H-pyran-4-yl)-1-methyl-3-(3-(trifluoromethyl)phenyl)urea]
MIC: > 64 µg/mL

CC[C@H]1OC(=O)[C@H](C)[C@@H](O)[C@H](C)[C@@H](O[C@@H]2O[C@H](C)C[C@H](N(C)C(=O)Nc3cccc(C#N)c3)[C@H]2O)[C@](C)(O)C[C@@H](C)CN[C@H](C)[C@@H](O)[C@]1(C)O [Example A-11, 3-(3-cyanophenyl)-1-((2S,3R,4S,6R)-2-(((2R,3S,4R,5R,8R,10R,11R,12S,13S,14R)-2-ethyl-3,4,10,13-tetrahydroxy-3,5,8,10,12,14-hexamethyl-15-oxo-1-oxa-6-azacyclopentadecan-11-yl)oxy)-3-hydroxy-6-methyltetrahydro-2H-pyran-4-yl)-1-methylurea]
MIC: > 64 µg/mL

CC[C@H]1OC(=O)[C@H](C)[C@@H](O)[C@H](C)[C@@H](O[C@@H]2O[C@H](C)C[C@H](N(C)C(=O)Nc3ccccc3Cl)[C@H]2O)[C@](C)(O)C[C@@H](C)CN[C@H](C)[C@@H](O)[C@]1(C)O [Example A-12, 3-(2-chlorophenyl)-1-((2S,3R,4S,6R)-2-(((2R,3S,4R,5R,8R,10R,11R,12S,13S,14R)-2-ethyl-3,4,10,13-tetrahydroxy-3,5,8,10,12,14-hexamethyl-15-oxo-1-oxa-6-azacyclopentadecan-11-yl)oxy)-3-hydroxy-6-methyltetrahydro-2H-pyran-4-yl)-1-methylurea]
MIC: > 64 µg/mL

CC[C@H]1OC(=O)[C@H](C)[C@@H](O)[C@H](C)[C@@H](O[C@@H]2O[C@H](C)C[C@H](N(C)C(=O)Nc3ccccc3C)[C@H]2O)[C@](C)(O)C[C@@H](C)CN[C@H](C)[C@@H](O)[C@]1(C)O [Example A-14, 1-((2S,3R,4S,6R)-2-(((2R,3S,4R,5R,8R,10R,11R,12S,13S,14R)-2-ethyl-3,4,10,13-tetrahydroxy-3,5,8,10,12,14-hexamethyl-15-oxo-1-oxa-6-azacyclopentadecan-11-yl)oxy)-3-hydroxy-6-methyltetrahydro-2H-pyran-4-yl)-1-methyl-3-(o-tolyl)urea]
MIC: > 64 µg/mL

CC[C@H]1OC(=O)[C@H](C)[C@@H](O)[C@H](C)[C@@H](O[C@@H]2O[C@H](C)C[C@H](N(C)C(=O)Nc3ccc(C(F)(F)F)cc3)[C@H]2O)[C@](C)(O)C[C@@H](C)CN[C@H](C)[C@@H](O)[C@]1(C)O [Example A-15, 1-((2S,3R,4S,6R)-2-(((2R,3S,4R,5R,8R,10R,11R,12S,13S,14R)-2-ethyl-3,4,10,13-tetrahydroxy-3,5,8,10,12,14-hexamethyl-15-oxo-1-oxa-6-azacyclopentadecan-11-yl)oxy)-3-hydroxy-6-methyltetrahydro-2H-pyran-4-yl)-1-methyl-3-(4-(trifluoromethyl)phenyl)urea]
MIC: > 64 µg/mL

CC[C@H]1OC(=O)[C@H](C)[C@@H](O)[C@H](C)[C@@H](O[C@@H]2O[C@H](C)C[C@H](N(C)C(=O)Nc3ccccc3C(F)(F)F)[C@H]2O)[C@](C)(O)C[C@@H](C)CN[C@H](C)[C@@H](O)[C@]1(C)O [Example A-16, 1-((2S,3R,4S,6R)-2-(((2R,3S,4R,5R,8R,10R,11R,12S,13S,14R)-2-ethyl-3,4,10,13-tetrahydroxy-3,5,8,10,12,14-hexamethyl-15-oxo-1-oxa-6-azacyclopentadecan-11-yl)oxy)-3-hydroxy-6-methyltetrahydro-2H-pyran-4-yl)-1-methyl-3-(2-(trifluoromethyl)phenyl)urea]
MIC: > 64 µg/mL

CC[C@H]1OC(=O)[C@H](C)[C@@H](O)[C@H](C)[C@@H](O[C@@H]2O[C@H](C)C[C@H](N(C)C(=O)Nc3ccccc3F)[C@H]2O)[C@](C)(O)C[C@@H](C)CN[C@H](C)[C@@H](O)[C@]1(C)O [Example A-17, 1-((2S,3R,4S,6R)-2-(((2R,3S,4R,5R,8R,10R,11R,12S,13S,14R)-2-ethyl-3,4,10,13-tetrahydroxy-3,5,8,10,12,14-hexamethyl-15-oxo-1-oxa-6-azacyclopentadecan-11-yl)oxy)-3-hydroxy-6-methyltetrahydro-2H-pyran-4-yl)-3-(2-fluorophenyl)-1-methylurea]
MIC: > 64 µg/mL

CC[C@H]1OC(=O)[C@H](C)[C@@H](O)[C@H](C)[C@@H](O[C@@H]2O[C@H](C)C[C@H](N(C)C(=O)Nc3ccc(F)cc3)[C@H]2O)[C@](C)(O)C[C@@H](C)CN[C@H](C)[C@@H](O)[C@]1(C)O [Example A-18, 1-((2S,3R,4S,6R)-2-(((2R,3S,4R,5R,8R,10R,11R,12S,13S,14R)-2-ethyl-3,4,10,13-tetrahydroxy-3,5,8,10,12,14-hexamethyl-15-oxo-1-oxa-6-azacyclopentadecan-11-yl)oxy)-3-hydroxy-6-methyltetrahydro-2H-pyran-4-yl)-3-(4-fluorophenyl)-1-methylurea]
MIC: > 64 µg/mL
